Test results published in patent US10227323B2, “Glucosylceramide synthase inhibitors for the treatment of diseases” (BIOMARIN PHARMACEUTICAL INC., priority 2013, dated 2019).

molecular target: T1, GCS (Canis lupus familiaris, UniProt A0A8I3MXG6); assay: Assay 1: GCS Enzymatic Assay (MDCK cell lysate, C6-NBD-Ceramide, LC/MS); assay type: biochemical, canine; conditions: Table 1; MDCK cell lysate; read-out: IC50 (nM) generated from Assay 1
T1 sequence (A0A8I3MXG6 1-394): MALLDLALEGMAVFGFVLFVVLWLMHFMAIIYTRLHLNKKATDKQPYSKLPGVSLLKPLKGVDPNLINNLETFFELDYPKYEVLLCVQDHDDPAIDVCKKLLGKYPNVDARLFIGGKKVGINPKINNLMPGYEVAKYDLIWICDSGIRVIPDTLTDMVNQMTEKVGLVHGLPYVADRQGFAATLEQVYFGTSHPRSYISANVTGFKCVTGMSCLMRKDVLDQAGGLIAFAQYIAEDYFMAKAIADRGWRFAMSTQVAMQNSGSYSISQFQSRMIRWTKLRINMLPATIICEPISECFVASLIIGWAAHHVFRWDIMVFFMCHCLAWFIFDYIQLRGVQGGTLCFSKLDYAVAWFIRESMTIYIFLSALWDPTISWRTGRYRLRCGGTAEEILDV
Description: This assay was modified based on the study by Larsen et al. (J. Lipid Res. 2011, 53, 282). Madin-Darby canine kidney (MDCK) cell lysate was prepared using M-PER Mammalian Protein Extraction Reagent (Thermal Scientific) in the presence of a protease inhibitor cocktail (Roche). Protein concentration was determined using BCA assay kit (Pierce). Sixty micrograms of MDCK cell lysate was incubated with various concentrations of a compound described herein from 0.001 μM-10 μM, respectively, in 100 mM Tris buffer (pH 7.5) containing 10 mM MgCl2, 1 mM dithiothreitol, 1 mM EGTA, 2 mM NAD, 100 μM UDP-glucose, 10 μM C6-NBD-Ceramide (Matreya LLC, Pleasant Gap, Pa.), 35 μM dioleoylphosphatidylcholine and 5 μM sulfatide (Sigma) in a final reaction volume of 100 μL at 37° C. for 1 hour. 0.1% DMSO was used as mock treatment or control. The reaction was terminated by adding 100 μL acetonitrile solution and subjected to LC/MS analysis.
The quantitative analysis of NBD-Ceramide and glucosylceramide was performed on a Shimadzu ultra-fast liquid chromatography (Shimadzu, Japan) coupled with API 4000 triple quadrupole mass spectrometer (Applied Biosystems, Concord, Ontario, Canada). Sample separation was conducted on a Waters Xbridge™ BEH130 C18, 100 mm×4.6 mm i.d, 3.5 μm (Milford, Mass., USA). The mobile phase consisted of water and acetonitrile supplemented with 0.1% formic acid (v/v). The flow rate was 1.0 mL/min. The initial mobile phase was 20% acetonitrile and was ramped in a linear fashion to 50% acetonitrile in 0.4 min. From 0.4 to 1.5 min, the gradient was ramped to 98% acetonitrile, and then was held at […] until 8.0 min. Acetonitrile was reset to 20% in 1.5 min, and maintained until 10.0 min. The total run time was 10.0 min. The MS/MS detection was performed in ESI positive mode. The mass transition of NBD-Ceramide was m/z 576.36→558.40 under the collision energy of 15 V, and the mass transition of glucosylceramide was m/z 738.35→558.40 under 21V collision energy. The cell lysate was diluted with equal volume of acetonitrile. Aliquots of 50 μL diluted samples were added to 1.5 mL tubes, and 100 μL of acetonitrile containing internal standard (100 ng/mL tolbutamide) were added for protein precipitation. The mixture were vortexed and then centrifuged at 13000 rpm for 10 min. 70 μL of supernatant were mixed with 140 μL of H2O and the final solution were injected for LC/MS/MS analysis and IC50's and/or percent inhibitions calculated.

First: O=C(N[C@H](CN1CCCC1)[C@@H](O)c1cc2c(cc1F)OCCO2)C(F)(F)C1Cc2ccccc2C1 [Compound 12B, 2-(2,3-dihydro-1H-inden-2-yl)-2,2-difluoro-N-((1S,2R)-1-(7-fluoro-2,3-dihydrobenzo[b][1,4]dioxin-6-yl)-1-hydroxy-3-(pyrrolidin-1-yl)propan-2-yl)acetamide]
Second: O=C(N[C@H](CN1CCCC1)[C@H](O)c1ccc2c(c1)OCCO2)C(F)(F)C1Cc2ccc(F)cc2C1 (stereo partly drawn) [Compound 21, N-((1R,2R)-1-(2,3-dihydrobenzo[b][1,4]dioxin-6-yl)-1-hydroxy-3-(pyrrolidin-1-yl)propan-2-yl)-2,2-difluoro-2-(5-fluoro-2,3-dihydro-1H-inden-2-yl)acetamide]
The IC50 of the first is higher: 50 to 5000 nM for the first, under 50 nM for the second.

First: O=C(N[C@H](CN1CCCC1)[C@H](O)c1ccc2c(c1)OCCO2)C(F)(F)C1Cc2cc3nccnc3cc2C1 [Compound 13, 2-(7,8-dihydro-6H-cyclopenta[g]quinoxalin-7-yl)-N-((1R,2R)-1-(2,3-dihydrobenzo[b][1,4]dioxin-6-yl)-1-hydroxy-3-(pyrrolidin-1-yl)propan-2-yl)-2,2-difluoroacetamide]
Second: O=C(N[C@H](CN1CCCC1)[C@H](O)c1ccc2c(c1)OCCO2)C(F)(F)c1cc2cc(F)ccc2o1 [Compound 24, N-((1R,2R)-1-(2,3-dihydrobenzo[b][1,4]dioxin-6-yl)-1-hydroxy-3-(pyrrolidin-1-yl)propan-2-yl)-2,2-difluoro-2-(5-fluorobenzofuran-2-yl)acetamide]
The IC50 of the first is higher: 50 to 5000 nM for the first, under 50 nM for the second.

`Cn1c(C(F)(F)C(=O)N[C@H](CN2CCCC2)[C@H](O)c2ccc3c(c2)OCCO3)cc2cc(Cl)ccc21` [Compound 14, 2-(5-chloro-1-methyl-1H-indol-2-yl)-N-((1R,2R)-1-(2,3-dihydrobenzo[b][1,4]dioxin-6-yl)-1-hydroxy-3-(pyrrolidin-1-yl)propan-2-yl)-2,2-difluoroacetamide] and `O=C(N[C@H](CN1CCCC1)[C@H](O)c1ccc2c(c1)OCCO2)C(F)(F)c1cc2cc(Cl)cc(Cl)c2o1` [Compound 15, 2-(5,7-dichlorobenzofuran-2-yl)-N-((1R,2R)-1-(2,3-dihydrobenzo[b][1,4]dioxin-6-yl)-1-hydroxy-3-(pyrrolidin-1-yl)propan-2-yl)-2,2-difluoroacetamide] cannot be ordered by IC50: under 50 nM for the first, under 50 nM for the second.

`O=C(N[C@H](CN1CCCC1)[C@H](O)c1ccc2c(c1)OCCO2)C(F)(F)CCc1cccc(-c2ccccn2)c1` [Compound 16, N-((1R,2R)-1-(2,3-dihydrobenzo[b][1,4]dioxin-6-yl)-1-hydroxy-3-(pyrrolidin-1-yl)propan-2-yl)-2,2-difluoro-4-(3-(pyridin-2-yl)phenyl)butanamide] and `O=C(N[C@H](CN1CCCC1)[C@H](O)c1ccc2c(c1)OCCO2)C(F)(F)CCc1ccc2ccccc2c1` [Compound 22, N-((1R,2R)-1-(2,3-dihydrobenzo[b][1,4]dioxin-6-yl)-1-hydroxy-3-(pyrrolidin-1-yl)propan-2-yl)-2,2-difluoro-4-(naphthalen-2-yl)butanamide] cannot be ordered by IC50: under 50 nM for the first, under 50 nM for the second.

Compared with `O=C(N[C@H](CN1CCCC1)[C@H](O)c1ccc2c(c1)OCCO2)C(F)(F)Cc1ccc2ccccc2c1` [Compound 17, N-((1R,2R)-1-(2,3-dihydrobenzo[b][1,4]dioxin-6-yl)-1-hydroxy-3-(pyrrolidin-1-yl)propan-2-yl)-2,2-difluoro-3-(naphthalen-2-yl)propanamide], `O=C(N[C@H](CN1CCCC1)[C@H](O)c1ccc2c(c1)OCCO2)C(F)(F)c1cc2ccccc2o1` [Compound 23, 2-(benzofuran-2-yl)-N-((1R,2R)-1-(2,3-dihydrobenzo[b][1,4]dioxin-6-yl)-1-hydroxy-3-(pyrrolidin-1-yl)propan-2-yl)-2,2-difluoroacetamide] is lower in IC50: 50 to 5000 nM for the first, under 50 nM for the second.

`O=C(N[C@H](CN1CCCC1)[C@H](O)c1ccc2c(c1)OCCO2)C(F)(F)c1cc2c(Cl)c(Cl)ccc2o1` [Compound 19, 2-(4,5-dichlorobenzofuran-2-yl)-N-((1R,2R)-1-(2,3-dihydrobenzo[b][1,4]dioxin-6-yl)-1-hydroxy-3-(pyrrolidin-1-yl)propan-2-yl)-2,2-difluoroacetamide] and `O=C(N[C@H](CN1CCCC1)[C@H](O)c1ccc2c(c1)OCCO2)C(F)(F)c1cc2cc(Br)ccc2o1` [Compound 31, 2-(5-bromobenzofuran-2-yl)-N-((1R,2R)-1-(2,3-dihydrobenzo[b][1,4]dioxin-6-yl)-1-hydroxy-3-(pyrrolidin-1-yl)propan-2-yl)-2,2-difluoroacetamide] cannot be ordered by IC50: under 50 nM for the first, under 50 nM for the second.

`O=C(N[C@H](CN1CCCC1)[C@H](O)c1ccc2c(c1)OCCO2)C(F)(F)c1cc2cc(F)ccc2s1` [Compound 28, N-((1R,2R)-1-(2,3-dihydrobenzo[b][1,4]dioxin-6-yl)-1-hydroxy-3-(pyrrolidin-1-yl)propan-2-yl)-2,2-difluoro-2-(5-fluorobenzo[b]thiophen-2-yl)acetamide] and `O=C(N[C@H](CN1CCCC1)[C@H](O)c1ccc2c(c1)OCCO2)C(F)(F)c1cc2cc(C(F)(F)F)ccc2o1` [Compound 30, N-((1R,2R)-1-(2,3-dihydrobenzo[b][1,4]dioxin-6-yl)-1-hydroxy-3-(pyrrolidin-1-yl)propan-2-yl)-2,2-difluoro-2-(5-(trifluoromethyl)benzofuran-2-yl)acetamide] cannot be ordered by IC50: under 50 nM for the first, under 50 nM for the second.

same assay, conditions: Table 1; values marked *; MDCK cell lysate

For `O=C(N[C@H](CN1CCCC1)[C@H](O)c1ccc2c(c1)OCCO2)C(F)(F)c1cc2cc(Cl)c(Cl)cc2o1` [Compound 18, 2-(5,6-dichlorobenzofuran-2-yl)-N-((1R,2R)-1-(2,3-dihydrobenzo[b][1,4]dioxin-6-yl)-1-hydroxy-3-(pyrrolidin-1-yl)propan-2-yl)-2,2-difluoroacetamide], the “% inhibition generated from Assay 1” value was “B* (the compound had a % inhibition of greater than or equal to about 3% but less than about 50%)”.
In the case of `O=C(N[C@H](CN1CCCC1)[C@H](O)c1ccc2c(c1)OCCO2)C(F)(F)Cc1cccc(-c2ccccn2)c1` [Compound 20, N-((1R,2R)-1-(2,3-dihydrobenzo[b][1,4]dioxin-6-yl)-1-hydroxy-3-(pyrrolidin-1-yl)propan-2-yl)-2,2-difluoro-3-(3-(pyridin-2-yl)phenyl)propanamide], the “% inhibition generated from Assay 1” value is reported as “B* (the compound had a % inhibition of greater than or equal to about 3% but less than about 50%)”.
For `O=C(N[C@H](CN1CCCC1)[C@@H](O)c1ccc2c(c1)OCCO2)C(F)(F)CCc1ccc2ccccc2c1` [Compound 22K, N-((1S,2R)-1-(2,3-dihydrobenzo[b][1,4]dioxin-6-yl)-1-hydroxy-3-(pyrrolidin-1-yl)propan-2-yl)-2,2-difluoro-4-(naphthalen-2-yl)butanamide], the “% inhibition generated from Assay 1” value was “B* (the compound had a % inhibition of greater than or equal to about 3% but less than about 50%)”.
`O=C(N[C@H](CN1CCCC1)[C@H](O)c1ccc2c(c1)OCCO2)C(F)(F)/C=C/c1ccc(Cl)cc1` [Compound 25, (E)-4-(4-chlorophenyl)-N-((1R,2R)-1-(2,3-dihydrobenzo[b][1,4]dioxin-6-yl)-1-hydroxy-3-(pyrrolidin-1-yl)propan-2-yl)-2,2-difluorobut-3-enamide] was tested, and the “% inhibition generated from Assay 1” value was “B* (the compound had a % inhibition of greater than or equal to about 3% but less than about 50%)”.
In the case of `NC1CC2CCC(C1)N2C[C@@H](NC(=O)C(F)(F)c1cc2cc(Cl)ccc2o1)[C@H](O)c1ccc2c(c1)OCCO2` (stereo partly drawn) [Compound 26, N-((1R,2R)-3-(3-amino-8-azabicyclo[3.2.1]octan-8-yl)-1-(2,3-dihydrobenzo[b][1,4]dioxin-6-yl)-1-hydroxypropan-2-yl)-2-(5-chlorobenzofuran-2-yl)-2,2-difluoroacetamide], the “% inhibition generated from Assay 1” value is reported as “B* (the compound had a % inhibition of greater than or equal to about 3% but less than about 50%)”.
